Assays:
[1] = tested on: bacteria (Table 6 pool) and fungi; assay: Challenge test, overall result (full bacteria pool and fungi); type: cell-based
Method: (§1) The preservative activity in representative rinse-off and leave-on formulations was evaluated using a modification of the Personal Care Products Council (PCPC—formerly the Cosmetic, Toiletry and Fragrance Association) protocol (Machtiger, et al. 2001. Determination of the Efficacy of Preservation of Non-Eye Area Water Miscible Cosmetic and Toiletry Formulations: Collaborative Study. J of AOAC International. 84:1, 101-109).
(§2) This evaluation was conducted using a four week, two or three-cycle (i.e., two-cycle for personal care and three-cycle for home care applications) microbial preservative efficacy test (i.e., challenge test) at 25° C. to determine the preservative efficacy of each treatment. Phenoxyethanol, benzyl alcohol and pelargonic acid were tested alone and in various combinations. The pelargonic acid used in the testing was purchased from Sigma-Aldrich. Combinations of phenoxyethanol or benzyl alcohol with benchmark multifunctional booster compounds were also tested for comparison. The preservative and booster ingredients were dosed and mixed thoroughly at room temperature into various formulations, specifically different personal care formulations including a lotion (leave-on, Table 1), a micellar water (rinse-off, Table 2), and a body wash formulation (rinse-off, Table 3) and different home care formulations including a manual dishwashing formulation (Table 4) and a liquid laundry detergent formulation (Table 5). […] Carbomers are a commonly used synthetic rheological modifier in personal care products. The formulation below was made by heating the aqueous (A) and oil (B) phases separately to 75-80° C. The oil phase was then poured into the aqueous phase and mixed by a homogenizer at approximately 45° C. The formed oil-in-water emulsion was cooled to room temperature. Triethanolamine and/or diluted sodium hydroxide was used to adjust the final pH to 6.3 or 6.5 (as indicated in the examples below).
(§3) After dosing, the samples were divided into two separate five gram aliquots. One aliquot was inoculated with 50 μl of a diluted bacterial pool, and the second aliquot was inoculated with 50 μl of a diluted fungal pool as described below. Unpreserved product samples were included as a growth control.
(§4) For personal care products, a mixed bacterial inoculum was prepared using 24-hour cultures of the test bacteria (Table 6) grown in trypticase soy broth (TSB). For home care products, a mixed bacterial inoculum was prepared using 24-hour cultures of the test bacteria either from Table 6 (full pool) or Table 7 (simplified pool) grown in trypticase soy broth (TSB). Details are disclosed in the home care examples below. Equal volumes of the bacterial test strains were combined and diluted one to ten in phosphate buffer to obtain an inoculum of approximately 5×10^7 to 5×10^8 colony forming units per ml (cfu/ml). The test samples were inoculated with 1% of the mixed bacterial inoculum. For both personal care and home care products, a mixed fungal inoculum was prepared using cell suspensions of the yeast Candida albicans ATCC #10231 and the mold Aspergillus brasiliensis ATCC #16404 in phosphate buffer. Equal volumes of the fungal test strains were combined and diluted one to ten with phosphate buffer to obtain an inoculum of approximately 5×10^6 to 5×10^7 cfu/ml. The test samples were inoculated with 1% of the mixed fungal inoculum.
(§5) For personal care products, the samples were subjected to two microbial challenges at time zero and inoculated a second time after seven days. For home care products, the samples were subjected to three microbial challenges at time zero and inoculated a second and third time after seven and fourteen days, respectively. The number of microorganisms added to each sample was determined by a standard Most Probable Number (MPN) determination in Trypticase Soy Broth (TSB) for bacteria and Potato Dextrose Broth (PDB) for fungi. Samples were incubated at 25° C. for the test duration of four weeks.

[2] = tested on: mixed fungal inoculum: Candida albicans ATCC #10231 and Aspergillus brasiliensis ATCC #16404; assay: Challenge test (preservative efficacy), mixed fungal inoculum; type: cell-based
Method: as §1, §2, §3, §4, §5

[3] = tested on: mixed bacterial inoculum (Table 6); assay: Challenge test (preservative efficacy), mixed bacterial inoculum, full pool (Table 6); type: cell-based
Method: as §1, §2, §3, §4, §5

[4] = ZenBio Cupric Ion Chelating (CIC) Assay; type: physicochemical; settings: calculated from a EDTA calibration curve, Pelargonic Acid at 775 μM
Method: The chelation property of the pelargonic acid was measured by using the ZenBio Cupric Ion Chelating (CIC) Assay (Cat #AOX-16). The assay measured the capacity of the pelargonic acid to chelate free cupric ions in solution, thereby inhibiting Cu(II) binding to pyrocatechol violet (PV) for generating a highly colored complex. The absorbance of the Cupric-PV complex was measured at a wavelength of 632 nm. The cupric ion chelating activity was determined as the percent of total PV over the Cu(II) binding. Ethylenediaminetetraacetic acid (EDTA), a well-known chelating agent, was used as a positive control. A series of EDTA with 7 different concentrations from 0 to 1000 μM were prepared and their corresponding absorbance measured and used as the calibration curve (Cupric ion chelating (%) vs. EDTA concentration). Percent cupric ion chelating was determined following the following calculations and Equation 1. The background absorbance value by averaging the absorbance values of the three background wells (no CuSO4 or sample). The average background absorbance was then subtracted from all the sample absorbance values. The maximal absorbance value (Absmax) was determined by averaging the absorbance values of the three wells containing CuSO4, PV and assay buffer. Abstest in Equation 1 is the absorbance of the test sample.
The calibration curve (Cupric ion chelating (%) vs. EDTA concentration) was fit by using a polynomial curve after log 10 transforming the concentrations (R2>0.98).

[5] = tested on: mixed bacterial inoculum for home care (Table 7); assay: Challenge test (preservative efficacy), mixed bacterial inoculum, simplified pool (Table 7); type: cell-based, Pseudomonas aeruginosa, Staphylococcus aureus; settings: dosed 1.0 wt %
Method: as §1, §2, §3, §4, §5

[6] = tested on: bacteria (Table 7 pool) and fungi; assay: Challenge test, overall result (simplified bacteria pool and fungi); type: cell-based; settings: dosed 1.0 wt %
Method: as §1, §2, §3, §4, §5

[7] = body wash, pH 6.5, Example 1E, dosed 0.5 wt %
[8] = liquid laundry detergent, pH 7.5, Example 1H, dosed 1.0 wt %
[9] = lotion with carbomer, pH 6.3, Example 1A, dosed 0.5 wt %
[10] = lotion with carbomer, pH 6.3, Example 1A, dosed 1.0 wt %
[11] = lotion with carbomer, pH 6.5, Example 1I, total dosing 0.8 wt %
[12] = micellar water, pH 6.0, Example 1B, dosed 0.5 wt %
[13] = micellar water, pH 6.0, Example 1C, dosed 0.3 wt %

Question: For `CCCCCCCCC(=O)O` [Pelargonic Acid, nonanoic acid], which “Overall Result” value [1, 7] is on record?
Answer: Its value is “Fail”.

Question: And the “Overall Result” value [1, 8]?
Answer: Its value is “Fail”.

Question: And the “Overall Result” value [1, 9]?
Answer: The value was “Fail”.

Question: What about the “Overall Result” value [1, 10] of the same compound?
Answer: The value was “Fail”.

Question: What about the “Overall Result” value [1, 11] of the same compound?
Answer: The value was “Fail”.

Question: What about the “Overall Result” value [1, 12] of the same compound?
Answer: Its value is “Fail”.

Question: What about the “Overall Result” value [1, 13] of the same compound?
Answer: The value was “Fail”.

Question: And the “Fungi growth rating Result” value [2, 7]?
Answer: Its value is “Pass (growth rating score caused by fungi of 2 or less at days 21-28 of the testing period)”.

Question: And the “Fungi growth rating Result” value ([2]; liquid laundry detergent, pH 7.5, Example 1G, dosed 1.0 wt %)?
Answer: The value was “Fail (growth rating score caused by fungi of more than 2 at days 21-28 of the testing period)”.

Question: And the “Fungi growth rating Result” value [2, 8]?
Answer: The value was “Fail (growth rating score caused by fungi of more than 2 at days 21-28 of the testing period)”.

Question: And the “Fungi growth rating Result” value [2, 9]?
Answer: Its value is “Fail (growth rating score caused by fungi of more than 2 at days 21-28 of the testing period)”.

Question: What about the “Fungi growth rating Result” value [2, 10] of the same compound?
Answer: Its value is “Fail (growth rating score caused by fungi of more than 2 at days 21-28 of the testing period)”.

Question: What about the “Fungi growth rating Result” value [2, 11] of the same compound?
Answer: The value was “Fail (growth rating score caused by fungi of more than 2 at days 21-28 of the testing period)”.

Question: And the “Fungi growth rating Result” value ([2]; manual dishwashing formulation, pH 5.5, Example 1F, dosed 1.0 wt %)?
Answer: The value was “Fail (growth rating score caused by fungi of more than 2 at days 21-28 of the testing period)”.

Question: And the “Fungi growth rating Result” value [2, 12]?
Answer: Its value is “Fail (growth rating score caused by fungi of more than 2 at days 21-28 of the testing period)”.

Question: What about the “Fungi growth rating Result” value [2, 13] of the same compound?
Answer: The value was “Fail (growth rating score caused by fungi of more than 2 at days 21-28 of the testing period)”.

Question: What about the “Bacteria growth rating Result” value [3, 7] of the same compound?
Answer: The value was “Fail (growth rating score caused by bacteria of 2 or more at days 21-28 of the testing period)”.

Question: And the “Bacteria growth rating Result” value ([3]; liquid laundry detergent, pH 7.5, full bacteria pool, Example 1H, dosed 1.0 wt %)?
Answer: The value was “Fail (growth rating score caused by bacteria of 2 or more at days 21-28 of the testing period)”.

Question: What about the “Bacteria growth rating Result” value [3, 9] of the same compound?
Answer: The value was “Fail (growth rating score caused by bacteria of 2 or more at days 21-28 of the testing period)”.

Question: What about the “Bacteria growth rating Result” value [3, 10] of the same compound?
Answer: Its value is “Fail (growth rating score caused by bacteria of 2 or more at days 21-28 of the testing period)”.

Question: And the “Bacteria growth rating Result” value ([3]; lotion with carbomer, pH 6.3, Example 1D, dosed 0.8 wt %)?
Answer: Its value is “Fail (growth rating score caused by bacteria of 2 or more at days 21-28 of the testing period)”.

Question: What about the “Bacteria growth rating Result” value [3, 11] of the same compound?
Answer: Its value is “Fail (growth rating score caused by bacteria of 2 or more at days 21-28 of the testing period)”.

Question: What about the “Bacteria growth rating Result” value ([3]; micellar water, pH 6.0, bacteria inoculation ~10^7 cfu/ml, Example 1B, dosed 0.5 wt %) of the same compound?
Answer: Its value is “Fail (growth rating score caused by bacteria of 2 or more at days 21-28 of the testing period)”.

Question: And the “Bacteria growth rating Result” value ([3]; micellar water, pH 6.0, bacteria inoculation ~10^8 cfu/ml, Example 1C, dosed 0.3 wt %)?
Answer: Its value is “Fail (growth rating score caused by bacteria of 2 or more at days 21-28 of the testing period)”.

Question: And the “Calculated EDTA equivalent” value [4]?
Answer: The value was 667 µM.

Question: What about the “Bacteria growth rating Result” value ([5]; liquid laundry detergent, pH 7.5, simplified bacteria pool, Example 1G) of the same compound?
Answer: Its value is “Fail (growth rating score caused by bacteria of 2 or more at days 21-28 of the testing period)”.

Question: What about the “Bacteria growth rating Result” value ([5]; manual dishwashing formulation, pH 5.5, simplified bacteria pool, Example 1F) of the same compound?
Answer: Its value is “Fail (growth rating score caused by bacteria of 2 or more at days 21-28 of the testing period)”.

Question: And the “Overall Result” value ([6]; liquid laundry detergent, pH 7.5, Example 1G)?
Answer: Its value is “Fail”.

Question: And the “Overall Result” value ([6]; manual dishwashing formulation, pH 5.5, Example 1F)?
Answer: The value was “Fail”.
